Read-outs that look alike come from different tables or passages of the source.
Target: T1, human CB2 (Homo sapiens, UniProt P34972)
T1 construct: expressed in transfected cells; host or cells: CHO (Chinese Hamster Ovary) cells
Assay: Cyclic AMP assay (HTRF) in CHO cells expressing human CB2
Assay type: cell-based
Protocol: Chinese Hamster Ovary cells (CHO) expressing human CB1 or human CB2 (3.3×10^5 cells/ml) were preincubated for 15 min at room temperature with tested agonist and 3-isobutyl-1-methylxanthine (IBMX; 200 μM) in phosphate buffered saline containing 1 mg/ml BSA (assay buffer) followed by 30 min incubation with forskolin in a total volume of 10 μl. The optimal forskolin concentration for each cell line was established in a separate experiment and adjusted to stimulate 70% of maximal cAMP response. cAMP content was measured using an HTRF assay (CisBio) according to the manufacturer's two step protocol.

[1] = CHO cells expressing human CB2, forskolin-stimulated cAMP, IBMX 200 μM, read-out: CB2 IC50

T1 sequence (P34972 whole entry): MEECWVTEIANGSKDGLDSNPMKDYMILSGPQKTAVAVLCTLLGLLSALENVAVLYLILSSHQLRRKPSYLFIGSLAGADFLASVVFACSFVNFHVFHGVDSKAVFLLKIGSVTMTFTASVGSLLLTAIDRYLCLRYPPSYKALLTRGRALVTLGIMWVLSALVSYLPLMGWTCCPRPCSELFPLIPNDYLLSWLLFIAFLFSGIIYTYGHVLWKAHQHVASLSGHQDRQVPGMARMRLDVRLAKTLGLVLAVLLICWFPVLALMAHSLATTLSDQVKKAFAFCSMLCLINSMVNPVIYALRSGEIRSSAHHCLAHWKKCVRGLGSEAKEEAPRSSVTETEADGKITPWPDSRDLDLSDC

Row | Compound | IC50 [1] [nM] | IC50 [nM]
1 | c1ccc2[nH]c(-c3nc(CN4CCOCC4)c4ccccn34)nc2c1 [Example I-1, 2-[1-(morpholin-4-ylmethyl)imidazo[1,5-a]pyridin-3-yl]-1H-benzimidazole] | 1260 | 
2 | FC1(F)CCN(Cc2nc(-c3nc(-c4ccccc4)c[nH]3)n3ccccc23)CC1 [Example II-1, 1-[(4,4-difluoropiperidin-1-yl)methyl]-3-(4-phenyl-1H-imidazol-2-yl)imidazo[1,5-a]pyridine] |  | 178
3 | FC1(F)CCN(Cc2nc(-c3cccc(C(F)(F)F)c3)n3ccccc23)CC1 [Example IV-1, 1-[(4,4-difluoropiperidin-1-yl)methyl]-3-[3-(trifluoromethyl)phenyl]imidazo[1,5-α]pyridine] |  | 17
4 | FC1(F)CCN(Cc2nc(-c3nc(-c4ccc(Cl)cc4)c[nH]3)n3ccccc23)CC1 [II-2, 3-[4-(4-CHLOROPHENYL)-1H-IMIDAZOL-2- YL]-1-[(4,4-DIFLUOROPIPERIDIN-1- YL)METHYL]IMIDAZO[1,5-A]PYRIDINE] | 199 | 
5 | FC1(F)CCN(Cc2nc(-c3nc(-c4ccc(Cl)cc4Cl)c[nH]3)n3ccccc23)CC1 [II-3, 3-[4-(2,4-DICHLOROPHENYL)-1H- IMIDAZOL-2-YL]-1-[(4,4- DIFLUOROPIPERIDIN-1- YL)METHYL]IMIDAZO[1,5-A]PYRIDINE] | 146 | 
6 | Fc1ccc(-c2c[nH]c(-c3nc(CN4CCC(F)(F)CC4)c4ccccn34)n2)cc1F [II-4, 3-[4-(3,4-DIFLUOROPHENYL)-1H- IMIDAZOL-2-YL]-1-[(4,4- DIFLUOROPIPERIDIN-1-YL)METHYL] IMIDAZO[1,5-A]PYRIDINE] | 171 | 
7 | FC1(F)CCN(Cc2nc(-c3nc(-c4cccc(C(F)(F)F)c4)c[nH]3)n3ccccc23)CC1 [II-5, 1-[(4,4-DIFLUOROPIPERIDIN-1- YL)METHYL]-3-{4-[3- (TRIFLUOROMETHYL)PHENYL]-1H- IMIDAZOL-2-YL}IMIDAZO [1,5-A]PYRIDINE] | 165 | 
8 | CC(C)(O)CCc1ccc(-c2nc(CN3CCC(F)(F)CC3)c3ccccn23)cc1 [IV-6, 4-(4-{1-[(4,4-DIFLUOROPIPERIDIN-1- YL)METHYL]IMIDAZO[1,5-A]PYRIDIN-3- YL}PHENYL)-2-METHYLBUTAN-2-OL] |  | 1350

Further lines, with some results ahead:

Row | IC50 [1] [nM] | Compound | IC50 [nM]
9 | 617 | Fc1ccc(-c2cc(-c3nc(CN4CCOCC4)c4ccccn34)[nH]n2)cc1 [Example III-1, 3-[3-(4-fluorophenyl)-1H-pyrazol-5-yl]-1-(morpholin-4-ylmethyl)imidazo[1,5-a]pyridine] | 
10 | 116 | FC1(F)CCN(Cc2nc(-c3ccc(-c4ccn[nH]4)cc3)n3ccccc23)CC1 [IV-4, 1-[(4,4-DIFLUOROPIPERIDIN-1- YL)METHYL]-3-[4-(1H-PYRAZOL-5- YL)PHENYL]IMIDAZO[1,5-A]PYRIDINE] | 
11 | 113 | FC1(F)CCN(Cc2nc(-c3cccc(-n4cccn4)c3)n3ccccc23)CC1 [IV-7, 1-[(4,4-DIFLUOROPIPERIDIN-1- YL)METHYL]-3-[3-(1H-PYRAZOL-1- YL)PHENYL]IMIDAZO[1,5-A]PYRIDINE] | 

Source: patent US20120004222A1, “CB2 RECEPTOR LIGANDS FOR THE TREATMENT OF PAIN” (priority 2007, published 2012)
